Test results published in US11634458B2, “Peptides and compositions for use in cosmetics and medicine” (LIPOTRUE, S.L., priority 2018, dated 2023).
“Also recorded” adds a separate entry of the source. One block for each substance: values may come before it.

How the values were obtained:
LAN cells = test: Measurement of acetylcholine release in differentiated LAN cells stimulated with 50 mM KCl; assay type: cell-based; settings: 1 hour treatment, 0.001, 0.005 and 0.01 mg/mL (Ac-SEQ ID NO: 8-NH2: 0.005 and 0.05 mg/mL)
Protocol: Said peptides were tested for their ability to modulate acetylcholine release in vitro. To that end, LAN cells were seeded on 48-well culture plates and allowed to reach the appropriate confluence under controlled conditions (37° C., 5% CO2) before inducing differentiation by replacing the culture media with Neurobasal® A media, supplemented with N-2 Supplement, GlutaMAX™, choline chloride and Leukemia Inhibition factor (GIBCO, Life technologies, MA, USA). Once the cells acquired its differentiated morphology, they were treated with the peptides mentioned above at the following concentrations for 1 hour: all peptides, except Ac-SEQ ID NO: 8-NH2, at 0.001 mg/mL, 0.005 mg/mL and 0.01 mg/mL; and peptide Ac-SEQ ID NO: 8-NH2 at 0.005 mg/mL and 0.05 mg/mL. Cells were then washed with HEPES, before stimulation of acetylcholine release by depolarization with external 50 mM KCl solution. Non-stimulated cells were incubated with non-depolarizing 4 mM KCl solution. After 30 minutes of incubation with the corresponding depolarizing or non-depolarizing KCl solution, cell supernatants were collected and used to measure acetylcholine levels with Amplex Red Acetylcholine Assay Kit (ThermoFisher Scientific, MA, USA). Cell pellets were used to determine protein content by BCA Protein Test Assay (Pierce BCA Protein Assay kit, ThermoFisher Scientific, MA, USA) (for data normalization purposes).
Percentage of acetylcholine release inhibition was calculated considering 100% release for the positive control (non-treated stimulated with KCl cells).

Munc18/Syntaxin-1 = Munc18/Syntaxin-1 (Homo sapiens, UniProt Q16623); test: ELISA-based in vitro Munc18/Syntaxin-1 binding assay; settings: peptide 0.1, 0.5 and 1 mM; Munc18 100 nM, Syntaxin-1 10 and 5 nM; control = 100% binding
Protocol: The capacity of the peptides to inhibit Munc18 protein-protein interaction with Syntaxin-1, a SNARE complex protein, was functionally evaluated by means of an ELISA-based in vitro Munc18/Syntaxin-1 binding assay. Briefly, the above-mentioned peptides at 0.1, 0.5 and 1 mM were preincubated with their target protein Syntaxin-1 (GST-tagged) at 10 and 5 nM in buffer (20 mM Hepes, 150 mM NaCl, 2 mM MgC2, 2 mM DTT, 0.5% Triton-X100 and 0.5% non-fat milk) for 3 hours at RT. Meanwhile, His-tagged Munc18 was bound to a Nickel-coated 96-well plate at 100 nM and incubated at RT for 1.5 hours. Non-bound protein was subsequently washed away before blocking wells with non-fat milk in wash buffer (PBS+0.02% Triton-X100) for additional 30 minutes. GST-tagged Syntaxin-1 preincubated with the peptides was then added at 10 and 5 nM to the plate and incubated for 2 h at RT. Wells were washed three times with wash buffer before incubation with the primary antibody (GST tag polyclonal antibody—Thermofisher Scientific, Massachusetts, USA) for 45 minutes. Finally, after washing again, HRP-conjugated secondary antibody (Anti-Rabbit-IgG-HRP—Sigma, Missouri, USA) was added and incubated at RT. TMB substrate (3,3′,5,5′-Tetramethylbenzidine) was used to develop signal. […] Amount of binding of Syntaxin-1 protein to Munc18 protein was analysed by measuring absorbance at 450 nm.

[1] = system: human skeletal muscle myocytes; test: Gene expression modulation in skeletal muscle human myocytes (RTqPCR contractility gene panel); assay type: cell-based; settings: 24 hours, vs basal control
Protocol: Said peptides were tested to evaluate their capacity to modulate the expression of several genes related with muscle contraction and relaxation in human skeletal muscle myocytes (Lodish H, Berk A, Zipursky S L, et al. (2000), Molecular Cell Biology, 4th edition; Section 18.3 Myosin: The Actin Motor Protein, Nueva York, W. H. Freeman; Kuo, I Y, & Ehrlich, B E (2015), Signaling in Muscle Contraction, Cold Spring Harbor Perspectives in Biology, 7(2); RAPSN receptor associated protein of the synapse [Homo sapiens (human)], Gene ID in NCBI 5913; Blake D J, Tinsley J M, Davies K E (1996), Utrophin: a structural and functional comparison to dystrophin, Brain Pathol., 6(1):37-47; Barik A, Lu Y, Sathyamurthy A, et.al. (2014), LRP4Is Critical for Neuromuscular Junction Maintenance, The Journal of Neuroscience, 34(42), 13892-13905; Kim N, Stiegler A L, Cameron T O, Hallock P T, et.al. (2008), Lrp4 is a Receptor for Agrin and Forms a Complex with MuSK, Cell, 135(2), 334-342; Mahavadi S, Nalli A, Kumar D, et.al. (2014), Increased expression of caveolin-1 is associated with upregulation of the RhoA/Rho kinase pathway and smooth muscle contraction in diabetes (1110.11), The FASEB Journal, 28:1_supplement)). To that end, a contractility smart data gene panel was designed. Said contractility smart data gene panel analyses the expression of the genes related with muscular contraction and relaxation included in table 5.
Briefly, human skeletal muscle myoblasts were seeded in duplicate in 12-well culture plates at a density of 1×10^5 cells/well and maintained at standard culture conditions (37° C., 95% humidity, 5% CO2) for 48-72h. Myoblast differentiation to myocyte was then induced with specific differentiation media (SKM-D medium+1% Antibiotic-Antimycotic) and monitored for 7 more days. Differentiated cells were treated with 0.05 mg/mL of peptide Ac-SEQ ID NO: 5-NH2; or with 0.1 mg/mL of peptide Ac-SEQ ID NO: 10-NH2 for 24 hours; or with 0.05 and 0.5 mg/mL of peptide Ac-SEQ ID NO: 8-NH2 for 6h; or with 0.5 mg/mL of peptide Ac-SEQ ID NO: 8-NH2 for 24 h. Untreated cells were used as basal control. Cells were then lysed for RNA extraction with a RNA purification commercial kit following manufacturer instructions (RNeasy mini kit, Qiagen, Netherlands). RNA was then quantified by nanodrop, adjusted in concentration and processed for retrotranscription to cDNA using a commercially available kit (High-Capacity cDNA Reverse Transcription kit, Thermofisher Scientific, USA). Resulting cDNA was used to perform a RTqPCR (Real Time Quantitative Polymerase Chain Reaction) using taqman technology and a panel of probes designed to target the specific genes related to muscle contractility mentioned in table 4.

SH-SY5Y cells = test: Exocytosis levels and delay (fluorescent exocytosis reporter); assay type: cell-based, human; settings: 1 mg/mL, 1 hour, PMA + ionomycin, vs non-treated cells
Protocol: The potential of said peptide Ac-SEQ ID NO: 8-NH2 to modulate the exocytosis of vesicles containing neurotransmitters from a neuroblastoma cell line was evaluated in vitro using SH-SY5Y cells, by fluorescence imaging using a Zeiss axiovert 200 inverted epifluorescence microscope with a 20× objective and a Xenon lamp.
SH-SY5Y cells (Sigma, USA) were cultured in T25 flasks in supplemented medium (DMEM/F12, Gibco, USA). Above 90% confluence, cells were trypsinized with 1 ml of 0.5% (v/v) Trypsin-EDTA. Next, 5 mL of said supplemented medium was added and cell concentration determined. Cells were seeded onto polyLysine-coated 12 mm-treated coverslips in 24 well-plates at 15×10^4 cells/well in supplemented medium (Gibco, USA) and incubated at regular conditions (37° C., 5% CO2). After 24 h cell seeding, cells were transfected with exocytosis reporter using Lipofectamine™ 3000 (Invitrogen, USA) following manufacturer's instructions. Reporter construct contained fusion protein made up of intraluminal-specific proteins and a pH-sensitive fluorescent protein.
For exocytosis monitorization, after 48 h of protein expression, cells were incubated with 0.01 mg/mL of Ac-SEQ ID NO: 8-NH2 peptide or 1 mg/mL of the benchmark acetyl hexapeptide-8 for 1 h at 37° C. and 5% CO2. Non-treated cells were used as basal control. […] Fluorescence imaging was done for the last 10 min of the stimulation protocol. Fluorescence signal of exocytosis reporter was monitored employing 483-512 nm excitation-filter and 525-530 nm emission-filter. […]
Non-treated cells were assayed in N=4 independent experiments with n=16 coverslips (483 cells measured), acetyl hexapeptide-8-treated cells in N=3 independent experiments with n=10 coverslips (328 cells measured) and Ac-SEQ ID NO: 8-NH2-treated cells in N=3 independent experiments with n=8 coverslips (240 cells measured). Cells were selected to individually monitor fluorescence intensity and time-course. Fluorescence peak evoked by ionomycin addition was used to quantify exocytosis by calculating the Area under the curve (AUC) using GraphPad software. Two parameters were defined and analyzed: • Exocytosis levels: For individual cells, total peak area was obtained from AUC analysis and was normalized by the baseline that was defined as fluorescence intensity 3-cycles before lonomycin injection. • Exocytosis delay: For individual cells, response time (min) was obtained from AUC analysis as time frame between lonomycin injection (Y) and initiation of peak (firstX).
Fluorescence values were further normalized as percentage change to non-treated cells on each experiment as: (exocytosis level of treated cells/exocytosis levels non-treated cells)×100 and (response time of treated cells/response time of non-treated cells)×100. […]

[2] = system: permeabilized chromaffin cells; settings: Blanes-Mira et al. 2002; cited from earlier work
[3] = system: human muscle cells and motor neurons derived from hiPSC co-cultures; test: Contraction frequency in human muscle cell / hiPSC motor neuron co-cultures; assay type: cell-based; settings: 0.5 mg/mL
Protocol: The potential of said peptide Ac-SEQ ID NO: 8-NH2 to modulate the contraction frequency was evaluated in vitro using human muscle cells and motor neurons derived from hiPSC co-cultures, by means of live-imaging video of localized contractile muscle fibers recorded with an InCell 2200 automated microscope during 60 seconds, before and after treatment (after treatment, at each of the established timepoints).
Human muscle cells were cultivated at a density of 1×10^6 cells in T75 cm^2 flasks and then transferred to 96 well plates for differentiation. Motor neurons derived from hiPSC were transferred onto the 96 well plates containing the muscle cells in a differentiation medium. Co-cultures were maintained for 10 days in order to generate neurons junctions with muscle fibers. Spontaneous contractions were observed within 5 days.
Co-cultures were then treated with control medium (basal), 1 μM α-bungarotoxin, 0.5 mg/mL of acetyl hexapeptide-8 as a benchmark reference and 0.05 or 0.1 mg/mL of peptide Ac-SEQ ID NO: 8-NH2. Movies of co-cultures were recorded during 60 seconds before treatment and, after 30 minutes of incubation, movies were recorded again during 60 seconds. The culture plate was incubated again for 1 h 30 min with compounds (2 h of total incubation), and movies of co-cultures were recorded again during 60 seconds. The culture plate was incubated again for a total of 24 h with compounds and at the end of the incubation movies were recorded again during 60 seconds. Finally, compounds were washed out and a last recording after 24 h from said washed out of the compounds was done to assess an eventual recovery of muscle contractions (recovery).
Frequencies of contraction were calculated before and after each incubation. For each culture condition, 6 wells were analyzed.

Sequence of Munc18/Syntaxin-1 (Q16623 whole entry): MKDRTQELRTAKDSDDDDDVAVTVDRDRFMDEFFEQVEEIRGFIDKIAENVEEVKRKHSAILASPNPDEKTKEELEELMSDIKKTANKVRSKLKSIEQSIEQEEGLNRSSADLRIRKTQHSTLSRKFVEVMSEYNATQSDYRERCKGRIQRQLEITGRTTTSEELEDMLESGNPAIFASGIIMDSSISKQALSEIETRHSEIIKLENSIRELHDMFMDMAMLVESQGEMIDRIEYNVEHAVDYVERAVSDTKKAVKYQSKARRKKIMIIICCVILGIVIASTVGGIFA

Substance: Ac-His-Ile-Leu-Asp-Trp-Trp-NH2 (Ac-HILDWW-NH2) [Ac-SEQ ID NO: 7-NH2]
Result: modulation of acetylcholine release (LAN cells): Active in the modulation of

Maximum inhibition of Munc18-Syntaxin-1 binding (Munc18/Syntaxin-1): 67%
Substance: Ac-His-Ile-Leu-Asp-Met-Trp-NH2 (Ac-HILDMW-NH2) [Ac-SEQ ID NO: 5-NH2]
Result: modulation of acetylcholine release (LAN cells): Active in the modulation of
ACTA1 gene expression ([1]; 0.05 mg/mL): downregulation
MYH1 gene expression ([1]; 0.05 mg/mL): downregulation
RAPSN gene expression ([1]; 0.05 mg/mL): downregulation
SCN3A gene expression ([1]; 0.05 mg/mL): downregulation
TNNC1 gene expression ([1]; 0.05 mg/mL): downregulation
UTRN gene expression ([1]; 0.05 mg/mL): downregulation

Substance: Ac-Arg-Arg-Arg-Phe-NH2 (Ac-RRRF-NH2) [Ac-SEQ ID NO: 10-NH2]
Result: modulation of acetylcholine release (LAN cells): Active in the modulation of
CACNB1 gene expression ([1]; 0.1 mg/mL): downregulation
CHRNA1 gene expression ([1]; 0.1 mg/mL): downregulation
SCN3A gene expression ([1]; 0.1 mg/mL): downregulation
TNNC1 gene expression ([1]; 0.1 mg/mL): downregulation
UTRN gene expression ([1]; 0.1 mg/mL): downregulation

Substance: Ac-Glu-Arg-Ile-Asn-Lys-Arg-Arg-Trp-NH2 (Ac-ERINKRRW-NH2) [Ac-SEQ ID NO: 13-NH2]
Result: modulation of acetylcholine release (LAN cells): not able to inhibit the release of acetylcholine; also recorded: Non-active in the modulation

Substance: Ac-Arg-Met-Arg-Phe-NH2 (Ac-RMRF-NH2) [Ac-SEQ ID NO: 11-NH2]
Result: modulation of acetylcholine release (LAN cells): Active in the modulation of

Substance: acetyl hexapeptide-8 [reference compound]
change of exocytosis level (SH-SY5Y cells): 7%
exocytosis response time delay (SH-SY5Y cells): 67%
inhibition of exocytosis, maximum values [2]: 40%
muscle contraction frequency with regard to the basal non-treated cells ([3]; after 30 min): 18%
muscle contraction frequency with regard to the basal non-treated cells ([3]; after 24 h): 45%
muscle contraction frequency with regard to the basal non-treated cells ([3]; after washout): 100%

Substance: Ac-His-Ile-Met-Asp-Trp-Trp-NH2 (Ac-HIMDWW-NH2) [Ac-SEQ ID NO: 9-NH2]
Result: modulation of acetylcholine release (LAN cells): Active in the modulation of

Substance: Ac-His-Ile-Met-Asp-Phe-Trp-NH2 (Ac-HIMDFW-NH2) [Ac-SEQ ID NO: 6-NH2]
Result: modulation of acetylcholine release (LAN cells): Active in the modulation of

Substance: Ac-Glu-Arg-Ile-Asn-Lys-Met-Arg-Tyr-NH2 (Ac-ERINKMRY-NH2) [Ac-SEQ ID NO: 14-NH2]
Result: modulation of acetylcholine release (LAN cells): not able to inhibit the release of acetylcholine; also recorded: Non-active in the modulation
